We go through 2 compounds from paper PMC12454493, “Insight on novel sulfamoylphenyl pyrazole derivatives as anticancer carbonic anhydrase inhibitors” (Molecular Diversity, 2024).

Like-named read-outs stand apart in the source and are kept apart here.

The subject of experiment [1] is MCF-7 breast cancer cell line. Nature of the experiment: In vitro cytotoxicity, MTT assay. The note with it: Homo sapiens. (In general: Formazan colour is commonly taken as a measure of viable cells.)
Experimental: In vitro cytotoxic activity:
Firstly, cultures were delivered into sterile area then each vial was supplied with 3 mL of medium or balanced salt solution free from phenol red and serum. Cultures were subjected to incubation foe 2-4 g. After the incubation period, MTT solubilization solution was added to remove the produced formazan crystals. Spectrophotometric measurement of absorbance was carried out at 690 nm for the background which then subtracted from absorbance measured at 570 nm. Five different drug concentrations were used 100, 25, 6.3, 1.6 and 0.4 nM and measured in triplicate.
Cell cycle analysis and Apoptotic assay
was determined using Annexin V-FITC Apoptosis Detection Kit (Bio Vision) according to the manufacturer’s procedures. Briefly, cell lines were cultured and incubated with each of the tested compounds for 48 h. Then, the cells were collected by centrifugation and resuspended in 500 μl of 1X binding buffer. 5 μl of Annexin V-FITC was added and 5 μl of propidium iodide (PI 50 mg/ml, optional.). The cells were incubated at room temperature for
Em = 530 nm) using FITC signal detector and PI staining was analyzed by the phycoerythrin emission signal detector.
Apoptotic assay: cell lines were cultured and incubated with each of the tested compounds for 48 h.
Then, the cells were collected by centrifugation and resuspended in 500 μl of 1X binding buffer. 5 μl of Annexin V-FITC was added and 5 μl of propidium iodide (PI 50 mg/ml, optional.). the cells were incubated at room temperature for 5 min in the dark.
signal detector and PI staining was analyzed by the phycoerythrin emission signal detector.
For a further experiment, the target named is hCA XII (Homo sapiens, UniProt O43570). The note with it: cited from earlier work.
In the next experiment the target is hCA IX (Homo sapiens, UniProt Q16790). The note with it: cited from earlier work.

Chain of hCA XII (O43570 25-354): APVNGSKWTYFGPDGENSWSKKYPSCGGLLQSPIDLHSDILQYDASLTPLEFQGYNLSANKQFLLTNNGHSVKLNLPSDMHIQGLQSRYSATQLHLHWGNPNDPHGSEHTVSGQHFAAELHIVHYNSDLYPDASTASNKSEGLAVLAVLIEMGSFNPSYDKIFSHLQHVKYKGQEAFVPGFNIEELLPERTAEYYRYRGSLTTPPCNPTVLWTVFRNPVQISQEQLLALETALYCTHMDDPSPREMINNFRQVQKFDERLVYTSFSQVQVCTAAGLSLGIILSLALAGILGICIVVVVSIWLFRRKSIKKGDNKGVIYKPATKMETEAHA

As a reminder, the IC50 is the concentration needed to halve the response being measured. Consider `COc1cccc2c1C(=O)c1c(O)c3c(c(O)c1C2=O)C[C@@](O)(C(=O)CO)C[C@@H]3O[C@H]1C[C@H](N)[C@H](O)[C@H](C)O1` [Doxorubicin, doxorubicin, reference compound], for which the IC50 in experiment [1] (MCF7, read-out: IC50 (µM) ± SD cytotoxic activity, MCF-7, MTT, normal conditions) came to 11.6 ± 0.46 µM; in experiment [1] (MCF7, read-out: IC50 (µM) ± SD cytotoxic activity, MCF-7, MTT, under hypoxia), 2.72 ± 0.11 µM.

What is called Ki is the equilibrium dissociation constant of an inhibitor or competing ligand from its target. For `COc1ccc(C2CC(C3=CC=CCC3=S)=NN2c2ccc(S(N)(=O)=O)cc2)c(OC)c1OC` (stereo not shown) [IV], the inhibition constant (Ki) is 9 nM at hCA XII and 44 nM at hCA IX.
